Target: T1, human N-acylethanolamine acid amidase (hNAAA) (Homo sapiens, UniProt Q02083)
T1 construct: expressed in transfected cells
T1 sequence (Q02083 29-359): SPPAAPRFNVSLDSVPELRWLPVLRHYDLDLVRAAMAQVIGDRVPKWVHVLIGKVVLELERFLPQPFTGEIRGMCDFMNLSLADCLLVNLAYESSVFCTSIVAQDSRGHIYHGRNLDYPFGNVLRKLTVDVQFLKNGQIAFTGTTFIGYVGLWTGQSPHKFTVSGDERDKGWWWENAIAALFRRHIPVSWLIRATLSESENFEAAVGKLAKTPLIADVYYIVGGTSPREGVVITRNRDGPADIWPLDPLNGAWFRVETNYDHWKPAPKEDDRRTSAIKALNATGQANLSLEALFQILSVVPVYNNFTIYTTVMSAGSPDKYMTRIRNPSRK
Experiment: Fluorogenic hNAAA assay
Assay type: biochemical
Description: HEK-293 cells stably transfected with the hNAAA coding sequence cloned from a human spleen cDNA library (catalog no. 639124, Clontech, Mountain View, CA, USA) were used as the enzyme source. Cells were grown in Dulbecco’s modified Eagle medium (DMEM) containing 10% FBS, 1% glutamine, 1 mM sodium pyruvate, and 500 μg mL^–1 G418. Cells were harvested, and pellets were stored at −80 °C until lysosomal-enriched lysate preparation. Cells were suspended in 20 mM Tris HCl (pH 7.4) with 0.32 M sucrose, sonicated, and centrifuged at 800 × g for 30 min at 4 °C. Supernatants were then ultracentrifuged at 12000 × g for 30 min at 4 °C. […] The suspension was finally ultracentrifuged at 105000 × g for 1 h at 4 °C, supernatants were collected, protein concentration was measured, and samples were aliquoted and stored at −80 °C until use.
The assay was run in 96-well microplates (Black OptiPlate-96F; PerkinElmer, Massachusetts, USA) in a total reaction volume of 200 μL. hNAAA protein preparation (4.0 μg) was preincubated for 30 min with various concentrations of test compounds or vehicle control (DMSO 5%) in 100 mM citrate/phosphate buffer (pH 4.5) containing 3.0 mM DTT, 0.1% NP40 0.1%, 0.05% BSA, 150 mM NaCl. […] Fluorescence was measured with an EnVision 2014 Multilabel Reader (PerkinElmer, Massachusetts, USA) using an excitation wavelength of 355 nm and emission of 460 nm. […]

CC(C)CNC(=O)n1c(=O)oc2cc(C3CCN(C)CC3)ccc21 [22m, N-Isobutyl-6-(1-methyl-4-piperidyl)-2-oxo-1,3-benzoxazole-3-carboxamide]
IC50: 8 µM

Source: paper PMC7997574, “Lead Optimization of Benzoxazolone Carboxamides as Orally Bioavailable and CNS Penetrant Acid Ceramidase Inhibitors” (Journal of Medicinal Chemistry, 2020)
